Reference: PubChem BioAssay (NCI)
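Dose response: 5 concentrations. Exposure: 48 h. Format: 96-well plates. Endpoint: linear interpolation; highest concentration if not reached. TGI denotes the concentration required for complete inhibition of growth.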

Assays:
Experiment in all cases: NCI anticancer screen, dose series, 48 h
[1] = system: MDA-N
[2] = system: CAKI-1 renal
[3] = system: SW-620 colon
[4] = system: MOLT-4 leukemia
[5] = system: EKVX NSCLC
[6] = system: MDA-MB-231 breast
[7] = system: SK-MEL-28 melanoma
[8] = system: MCF7 breast
[9] = system: DU-145 prostate
[10] = system: UACC-257 melanoma
[11] = system: HL-60(TB) leukemia
[12] = system: 786-0 renal
[13] = system: HCT-15 colon
[14] = system: PC-3 prostate
[15] = system: COLO 205 colon
[16] = system: K-562 leukemia
[17] = system: CCRF-CEM leukemia
[18] = system: IGROV1 ovarian
[19] = system: HCC-2998 colon
[20] = system: A549 NSCLC
[21] = system: RPMI-8226 leukemia
[22] = system: HOP-62 NSCLC
[23] = system: T-47D breast
[24] = system: M14 melanoma
[25] = system: SF-268 CNS
[26] = system: SN12C renal
[27] = system: SF-295 CNS
[28] = system: HT29 colon
[29] = system: KM12 colon
[30] = system: SNB-75 CNS
[31] = system: OVCAR-8 ovarian
[32] = system: NCI-H23 lung
[33] = system: UACC-62 melanoma
[34] = system: SR leukemia
[35] = system: RXF 393 renal
[36] = system: MALME-3M melanoma
[37] = system: TK-10 renal
[38] = system: SK-OV-3 ovarian
[39] = system: SK-MEL-5 melanoma
[40] = system: A498 renal
[41] = system: OVCAR-3 ovarian
[42] = system: MDA-MB-435
[43] = system: UO-31 renal
[44] = system: NCI/ADR-RES ovarian
[45] = system: NCI-H460 lung
[46] = system: OVCAR-5 ovarian
[47] = system: LOX IMVI melanoma
[48] = system: HS 578T breast
[49] = system: SNB-19 CNS
[50] = system: HOP-92 NSCLC
[51] = system: HCT-116 colon
[52] = system: BT-549 breast
[53] = system: NCI-H226 lung
[54] = system: U251 CNS
[55] = system: SF-539 CNS
[56] = system: ACHN renal

## N#Cc1ccc(NC(=NCC(=O)O)Nc2ccc3ccccc3c2)cc1
[1]
  TGI: > 10 µM
[2]
  TGI: > 10 µM
[3]
  TGI: > 10 µM
[4]
  TGI: > 10 µM
[5]
  TGI: > 10 µM
[6]
  TGI: > 10 µM
[7]
  TGI: > 10 µM
[8]
  TGI: > 10 µM
[9]
  TGI: > 10 µM
[10]
  TGI: > 10 µM
[11]
  TGI: > 10 µM
[12]
  TGI: > 10 µM
[13]
  TGI: > 10 µM
[14]
  TGI: > 10 µM
[15]
  TGI: > 10 µM
[16]
  TGI: > 10 µM
[17]
  TGI: > 10 µM
[18]
  TGI: > 10 µM
[19]
  TGI: > 10 µM
[20]
  TGI: > 10 µM
[21]
  TGI: > 10 µM
[22]
  TGI: > 10 µM
[23]
  TGI: > 10 µM
[24]
  TGI: > 10 µM
[25]
  TGI: > 10 µM
[26]
  TGI: > 10 µM
[27]
  TGI: > 10 µM
[28]
  TGI: > 10 µM
[29]
  TGI: > 10 µM
[30]
  TGI: > 10 µM
[31]
  TGI: > 10 µM
[32]
  TGI: > 10 µM
[33]
  TGI: > 10 µM
[34]
  TGI: > 10 µM
[35]
  TGI: > 10 µM
[36]
  TGI: > 10 µM
[37]
  TGI: > 10 µM
[38]
  TGI: > 10 µM
[39]
  TGI: > 10 µM

## Cc1c2cccc-2c(N(C)C)cc2c1[nH]c1ccccc12
[40]
  TGI: 37.8 µM
[41]
  TGI: > 100 µM
[42]
  TGI: 22.5 µM
[1]
  TGI: 22.4 µM
[2]
  TGI: 32.7 µM
[3]
  TGI: 18.9 µM
[43]
  TGI: 7.93 µM
[4]
  TGI: 16.9 µM
[5]
  TGI: 5.05 µM
[6]
  TGI: 23.8 µM
[7]
  TGI: 6.84 µM
[8]
  TGI: 24.1 µM
[44]
  TGI: 13.4 µM
[45]
  TGI: 32.2 µM
[46]
  TGI: 9.35 µM
[9]
  TGI: 28.7 µM
[47]
  TGI: 15.3 µM
[10]
  TGI: 26.4 µM
[48]
  TGI: 13.8 µM
[11]
  TGI: 5.74 µM
[12]
  TGI: 12 µM
[13]
  TGI: 13.6 µM
[14]
  TGI: 5.33 µM
[15]
  TGI: 3.42 µM
[49]
  TGI: 22.1 µM
[50]
  TGI: 3.54 µM
[17]
  TGI: 12.8 µM
[18]
  TGI: 4.9 µM
[20]
  TGI: 18.6 µM
[51]
  TGI: 12.6 µM
[21]
  TGI: 5.73 µM
[22]
  TGI: 15.1 µM
[23]
  TGI: 5.09 µM
[24]
  TGI: 18.9 µM
[25]
  TGI: 16.7 µM
[52]
  TGI: 8.19 µM
[26]
  TGI: 20.2 µM
[27]
  TGI: 25.3 µM
[28]
  TGI: 18.2 µM
[53]
  TGI: 21.8 µM
[54]
  TGI: 4.01 µM
[29]
  TGI: 7.98 µM
[31]
  TGI: 10.3 µM
[32]
  TGI: 32.3 µM
[34]
  TGI: 3.98 µM
[36]
  TGI: 10.9 µM
[55]
  TGI: 4.31 µM
[56]
  TGI: 12.4 µM
[37]
  TGI: 13.2 µM
[38]
  TGI: 15.1 µM
[39]
  TGI: 18.5 µM
